Numbers after ± are expanded uncertainties.
Assay: xn = mol fraction of the nth substance listed
Settings: 100 kPa, Liquid; for viscosity: Capillary tube (Ostwald / Ubbelohde) method; for mass density: Vibrating tube method

O=C1CCCO1 [γ-butyrolactone] + CCCCCCCCn1cc[n+](C)c1.O=S(=O)([N-]S(=O)(=O)C(F)(F)F)C(F)(F)F
Settings | mass density [kg/m3] | viscosity [mPa·s]
293.15 K, x2 = 0 | 1129.49 ± 9 | 1.86 ± 0.08
293.15 K, x2 = 0.0486 | 1168.04 ± 9.4 | 2.77 ± 0.12
293.15 K, x2 = 0.1001 | 1197.81 ± 9.6 | 4 ± 0.17
293.15 K, x2 = 0.1497 | 1219.5 ± 9.8 | 5.49 ± 0.23
293.15 K, x2 = 0.2006 | 1237.06 ± 9.9 | 7.48 ± 0.31
293.15 K, x2 = 0.3037 | 1262.89 ± 10 | 12.83 ± 0.53
293.15 K, x2 = 0.394 | 1278.72 ± 10 | –
293.15 K, x2 = 0.4952 | 1292.01 ± 10 | 29.29 ± 1.2
293.15 K, x2 = 0.586 | 1300.99 ± 10 | –
293.15 K, x2 = 0.7007 | 1309.94 ± 10 | 54.57 ± 2.2
293.15 K, x2 = 0.8081 | 1316.42 ± 11 | –
293.15 K, x2 = 0.9003 | 1321 ± 11 | 87.86 ± 3.6
298.15 K, x2 = 0 | 1124.59 ± 9 | 1.71 ± 0.07
298.15 K, x2 = 0.0486 | 1163.25 ± 9.4 | 2.53 ± 0.11
298.15 K, x2 = 0.1001 | 1193.1 ± 9.6 | 3.64 ± 0.15
298.15 K, x2 = 0.1497 | 1214.96 ± 9.7 | 4.9 ± 0.2
298.15 K, x2 = 0.2006 | 1232.47 ± 9.9 | 6.56 ± 0.27
298.15 K, x2 = 0.3037 | 1258.37 ± 10 | 10.89 ± 0.45
298.15 K, x2 = 0.394 | 1274.26 ± 10 | –
298.15 K, x2 = 0.4952 | 1287.58 ± 10 | 23.62 ± 0.96
298.15 K, x2 = 0.586 | 1296.61 ± 10 | –
298.15 K, x2 = 0.7007 | 1305.54 ± 10 | 42.86 ± 1.7
298.15 K, x2 = 0.8081 | 1312.07 ± 11 | –
298.15 K, x2 = 0.9003 | 1316.57 ± 11 | 68 ± 2.8
303.15 K, x2 = 0 | 1119.68 ± 9 | 1.58 ± 0.06
303.15 K, x2 = 0.0486 | 1158.47 ± 9.3 | 2.31 ± 0.1
303.15 K, x2 = 0.1001 | 1188.35 ± 9.5 | 3.26 ± 0.14
303.15 K, x2 = 0.1497 | 1210.25 ± 9.7 | 4.41 ± 0.18
303.15 K, x2 = 0.2006 | 1227.82 ± 9.8 | 5.8 ± 0.24
303.15 K, x2 = 0.3037 | 1253.81 ± 10 | 9.44 ± 0.39
303.15 K, x2 = 0.394 | 1269.73 ± 10 | –
303.15 K, x2 = 0.4952 | 1283.09 ± 10 | 19.3 ± 0.79
303.15 K, x2 = 0.586 | 1292.14 ± 10 | –
303.15 K, x2 = 0.7007 | 1301.1 ± 10 | 34.7 ± 1.4
303.15 K, x2 = 0.8081 | 1307.63 ± 10 | –
303.15 K, x2 = 0.9003 | 1312.16 ± 11 | 53.86 ± 2.2
308.15 K, x2 = 0 | 1114.78 ± 8.9 | 1.47 ± 0.06
308.15 K, x2 = 0.0486 | 1153.69 ± 9.3 | 2.12 ± 0.09
308.15 K, x2 = 0.1001 | 1183.64 ± 9.5 | 2.96 ± 0.12
308.15 K, x2 = 0.1497 | 1205.57 ± 9.7 | 3.97 ± 0.16
308.15 K, x2 = 0.2006 | 1223.18 ± 9.8 | 5.15 ± 0.21
308.15 K, x2 = 0.3037 | 1249.22 ± 10 | 8.26 ± 0.34
308.15 K, x2 = 0.394 | 1265.2 ± 10 | –
308.15 K, x2 = 0.4952 | 1278.6 ± 10 | 16.57 ± 0.68
308.15 K, x2 = 0.586 | 1287.67 ± 10 | –
308.15 K, x2 = 0.7007 | 1296.66 ± 10 | 28.87 ± 1.2
308.15 K, x2 = 0.8081 | 1303.22 ± 10 | –
308.15 K, x2 = 0.9003 | 1307.76 ± 10 | 43.53 ± 1.8
313.15 K, x2 = 0 | 1109.87 ± 8.9 | 1.37 ± 0.06
313.15 K, x2 = 0.0486 | 1148.89 ± 9.2 | 1.96 ± 0.08
313.15 K, x2 = 0.1001 | 1178.93 ± 9.5 | 2.72 ± 0.11
313.15 K, x2 = 0.1497 | 1200.87 ± 9.6 | 3.61 ± 0.15
313.15 K, x2 = 0.2006 | 1218.54 ± 9.8 | 4.62 ± 0.19
313.15 K, x2 = 0.3037 | 1244.66 ± 10 | 7.27 ± 0.3
313.15 K, x2 = 0.394 | 1260.67 ± 10 | –
313.15 K, x2 = 0.4952 | 1274.11 ± 10 | 13.95 ± 0.57
313.15 K, x2 = 0.586 | 1283.2 ± 10 | –
313.15 K, x2 = 0.7007 | 1292.22 ± 10 | 23.79 ± 0.97
313.15 K, x2 = 0.8081 | 1298.8 ± 10 | –
313.15 K, x2 = 0.9003 | 1303.36 ± 10 | 35.68 ± 1.4
318.15 K, x2 = 0 | 1104.96 ± 8.8 | 1.28 ± 0.05
318.15 K, x2 = 0.0486 | 1144.1 ± 9.2 | 1.82 ± 0.08
318.15 K, x2 = 0.1001 | 1174.21 ± 9.4 | 2.49 ± 0.1
318.15 K, x2 = 0.1497 | 1196.2 ± 9.6 | 3.23 ± 0.13
318.15 K, x2 = 0.2006 | 1213.93 ± 9.7 | 4.17 ± 0.17
318.15 K, x2 = 0.3037 | 1240.09 ± 9.9 | 6.47 ± 0.27
318.15 K, x2 = 0.394 | 1256.15 ± 10 | –
318.15 K, x2 = 0.4952 | 1269.61 ± 10 | 12 ± 0.49
318.15 K, x2 = 0.586 | 1278.74 ± 10 | –
318.15 K, x2 = 0.7007 | 1287.82 ± 10 | 19.85 ± 0.81
318.15 K, x2 = 0.8081 | 1294.4 ± 10 | –
318.15 K, x2 = 0.9003 | 1298.97 ± 10 | 29.79 ± 1.2
323.15 K, x2 = 0 | 1100.05 ± 8.8 | 1.2 ± 0.05
323.15 K, x2 = 0.0486 | 1139.34 ± 9.2 | 1.69 ± 0.07
323.15 K, x2 = 0.1001 | 1169.52 ± 9.4 | 2.29 ± 0.1
323.15 K, x2 = 0.1497 | 1191.56 ± 9.6 | 2.95 ± 0.12
323.15 K, x2 = 0.2006 | 1209.34 ± 9.7 | 3.78 ± 0.16
323.15 K, x2 = 0.3037 | 1235.56 ± 9.9 | 5.8 ± 0.24
323.15 K, x2 = 0.394 | 1251.63 ± 10 | –
323.15 K, x2 = 0.4952 | 1265.15 ± 10 | 10.5 ± 0.43
323.15 K, x2 = 0.586 | 1274.3 ± 10 | –
323.15 K, x2 = 0.7007 | 1283.4 ± 10 | 16.69 ± 0.68
323.15 K, x2 = 0.8081 | 1290.01 ± 10 | –
323.15 K, x2 = 0.9003 | 1294.6 ± 10 | 25.43 ± 1
